Measurements published in the NIST ThermoML archive (doi:10.1016/j.fluid.2011.09.010).
± gives the expanded uncertainty stated by the source.

Experiment: activity coefficient (dimensionless); of the first substance listed, at infinite dilution; xn = mol fraction of the nth substance listed
Conditions: 101.3 kPa, Liquid, Differential ebulliometry, x1 = 0

| activity coefficient (373.15 K) | activity coefficient (393.15 K) | activity coefficient (333.15 K) | activity coefficient (348.15 K) | activity coefficient (353.15 K) | SMILES |
| --- | --- | --- | --- | --- | --- |
| 1.64 ± 0.2 | 1.48 ± 0.18 |  |  | 1.87 ± 0.22 | NC1CCCCC1 [cyclohexylamine] + CC1CCCCC1 |
| 1.25 ± 0.15 |  | 1.19 ± 0.14 |  | 1.26 ± 0.15 | CC1CCCCC1 [methylcyclohexane] + NC1CCCCC1 |
| 1.45 ± 0.17 | 1.36 ± 0.16 |  |  | 1.52 ± 0.18 | NC1CCCCC1 [cyclohexylamine] + CCC1CCCCC1 |

The remaining lines, values behind:

| SMILES | activity coefficient (373.15 K) | activity coefficient (393.15 K) | activity coefficient (333.15 K) | activity coefficient (348.15 K) | activity coefficient (353.15 K) |
| --- | --- | --- | --- | --- | --- |
| C1CCCCC1 [cyclohexane] + NC1CCCCC1 | 1.24 ± 0.15 | 1.18 ± 0.14 |  |  |  |
| NC1CCCCC1 [cyclohexylamine] + C1CCCCC1 |  |  | 1.77 ± 0.21 | 1.49 ± 0.18 |  |
| CCC1CCCCC1 [ethylcyclohexane] + NC1CCCCC1 | 1.45 ± 0.17 | 1.42 ± 0.17 |  |  | 1.57 ± 0.19 |
